These results are taken from patent US20210101881A1 (Ancureall Pharmaceutical (Shanghai) Co., Ltd., priority 2018, published 2021).

Where two headings read alike, the source gives them in different places. Some results are limits rather than exact numbers.

The assay deals with MOLM13 cells. In words: Growth inhibition of CDK9-positive cell line MOLM13 in vitro (CCK8/MTT assay). It is filed as cell-based, human. The protocol:
1. MOLM13 cell line and cell culture MOLM13 is a CDK9-positive human acute myeloid leukemia cell line from DMSZ. Suspension culture was carried out in RPMI1640 (Gibco) medium with 10% fetal bovine serum (Gibco), 1% penicillin-streptomycin and 2 mM glutamine.
Suspended MOLM-13 cells in logarithmic growth phase were collected by centrifugation (1700 rpm, 3 minutes), the supernatant was discarded, and the cells were counted. A solution with a cell concentration of 2×10^5 cells per milliliter was formulated and inoculated in a 96-well plate (Corning) with 100 microliters per well. The plate was incubated at 37° C., 5% CO2 overnight. On the next day, the test compound was added to the cultured cells in two parallel wells. […]
The present compound and the control compounds were respectively dissolved in DMSO (Sigma).
When the solvent control well became dark yellow, the OD450 nm absorption value was measured, and the cell growth rate was calculated according to the following formula. Cell growth rate %=100*(T−T0)/(C−T0), wherein T=the optical density value of the drug-treated well—the optical density value of the blank control well, T0=the optical density value of the well before drug treatment—the optical density value of the blank control well, C=the optical density value of the solvent control well—the optical density value of the blank control well. […] The assay was repeated three times, and the data was subjected to a biological statistical analysis.

[1] abbreviates: Homo sapiens, MOLM-13, MOLM13 cells, cultured 3 to 6 days, CCK8, read-out: IC50 of the compound for inhibiting cell growth, MOLM13 cells.
Where [2] appears, read: Homo sapiens, MOLM-13, read-out: IC50 of the compound for inhibiting cell growth, MOLM13 cells.

With `NC(=O)c1cn(-c2nc(Nc3cccc(N4CCN(CC5CO5)CC4)c3)ncc2F)c2ccccc12` (stereo not shown) [Compound 156, 1-{5-fluoro-2-[3-(4-oxiranylmethyl-piperazin-1-yl)-phenylamino]-pyrimidin-4-yl}-1H-indole-3-carboxamide], under setting [1], the IC50 was in the range of 10 to 100 nM. `COc1cc(Nc2ncc(Cl)c(-n3cc(C(N)=O)c4ccccc43)n2)ccc1N(C)CCN1CCCC1` [Compound 99, 1-(5-chloro-2-{3-methoxy-4-[methyl-(2-pyrrolidin-1-yl-ethyl)-amino]-phenylamino}-pyrimidin-4-yl)-1H-indole-3-carboxamide]: under setting [1], the IC50 lay in the range of 1 to 10 nM. `NC(=O)c1cn(-c2nc(Nc3cccc(N4CCN(C(=O)C5CCCN5)CC4)c3)ncc2F)c2ccccc12` (stereo not shown) [Compound 169, 1-(5-fluoro-2-{3-[4-(pyrrolidin-2-carbonyl)-1-piperazin-1-yl]-phenylamino}-pyrimidin-4-yl)-1H-indole-3-carboxamide]: the IC50 under setting [1] is 1 to 10 nM. Turning to `CCN1CCN(c2cccc(Nc3ncc(F)c(-n4cc(C(N)=O)c5cc(OCCN6CCOCC6)ccc54)n3)c2)CC1` [Compound 168, 1-{2-[3-(4-ethyl-piperazin-1-yl)-phenylamino]-5-fluoro-pyrimidin-4-yl}-5-(2-morpholin-4-yl-ethoxy)-1H-indole-3-carboxamide], under setting [1], the IC50 was in the range of 10 to 100 nM. For `NC(=O)c1cn(-c2nc(Nc3cccc(N4CCN(C(=O)C5CCCC5)CC4)c3)ncc2F)c2ccccc12` [Compound 171], the IC50 under setting [1] lay within 10 to 100 nM. As to `NC(=O)c1cn(-c2ccnc(Nc3ccc(N4CCOCC4)c(F)c3)n2)c2ccccc12` [Compound 71, 1-[2-(3-fluoro-4-morpholin-4-yl-phenylamino)-pyrimidin-4-yl]-1H-indole-3-carboxamide], the IC50 under setting [1] lay within 10 to 100 nM. Still for that read-out and setting: as for `CNC(=O)c1cn(-c2ccnc(Nc3ccc(S(N)(=O)=O)cc3)n2)c2ccccc12` [Compound 108, 1-[2-(4-sulfamoyl-phenylamino)-pyrimidin-4-yl]-1H-indole-3-carboxmethylamide], the figure is over 1000 nM. On to `CNC(=O)c1cn(-c2ccnc(Nc3cccc(N4CCN(C)CC4)c3)n2)c2ccccc12` [Compound 106, 1-{2-[3-(4-methyl-piperazin-1-yl)-phenylamino]-pyrimidin-4-yl}-1H-indole-3-carboxmethylamide], for which the IC50 (MOLM13 cells, cultured 3 to 6 days, CCK8, read-out: IC50 of the compound for inhibiting cell growth, MOLM13 cells) fell in the range of 10 to 100 nM. For the molecule `COc1cc(Nc2ncc(F)c(-n3cc(C(N)=O)c4ccccc43)n2)ccc1N(C)CCN(C)C` [Compound 86, 1-(2-{4-[(2-dimethylamino-ethyl)-methyl-amino]-3-methoxy-phenylamino}-5-fluoro-pyrimidin-4-yl)-1H-indole-3-carboxamide], the IC50 under setting [1] was 1 to 10 nM. Turning to `COc1cc(Nc2nccc(-n3cc(C(N)=O)c4ccccc43)n2)ccc1N1CCN(C)CC1` [Compound 48, 1-{2-[3-methoxy-4-(4-methyl-piperazin-1-yl)-phenylamino]-pyrimidin-4-yl}-1H-indole-3-carboxamide], the IC50 under setting [1] lay within 10 to 100 nM. Take `CN(C)CCN(C)c1ccc(Nc2ncc(Cl)c(-n3cc(C(N)=O)c4ccccc43)n2)cc1` [Compound 85, 1-(5-chloro-2-{4-[(2-dimethylamino-ethyl)-methyl-amino]-phenylamino}-pyrimidin-4-yl)-1H-indole-3-carboxamide]: under setting [1], the IC50 was 1 to 10 nM.

On to `CN1CCN(c2cccc(Nc3ncc(Cl)c(-n4cc(C(N)=O)c5ccccc54)n3)c2)CC1` [Compound 118, 1-{5-chloro-2-[3-(4-methyl-piperazin-1-yl)-phenylamino]-pyrimidin-4-yl}-1H-indole-3-carboxamide], for which the IC50 under setting [2] lay in the range of 1 to 10 nM. For the molecule `NC(=O)c1cn(-c2nc(Nc3cccc(N4CCN(CC5CCOCC5)CC4)c3)ncc2F)c2ccccc12` [Compound 157, 1-(5-fluoro-2-{3-[4-(tetrahydro-pyran-4-ylmethyl)-piperazin-1-yl]-phenylamino}-pyrimidin-4-yl)-1H-indole-3-carboxamide], under setting [1], the IC50 fell in the range of 10 to 100 nM. As to `Cc1cc(Nc2ncc(Cl)c(-n3cc(C(N)=O)c4ccccc43)n2)ccc1N(C)CCN1CCCC1` [Compound 97, 1-(5-chloro-2-{3-methyl-4-[methyl-(2-pyrrolidin-1-yl-ethyl)-amino]-phenylamino}-pyrimidin-4-yl)-1H-indole-3-carboxamide], the IC50 under setting [1] fell in the range of 1 to 10 nM. For the molecule `CCC(C)N1CCN(c2cccc(Nc3ncc(F)c(-n4cc(C(N)=O)c5ccccc54)n3)c2)CC1` (stereo not shown) [Compound 145, 1-{2-[3-(4-sec-butyl-piperazin-1-yl)-phenylamino]-5-fluoro-pyrimidin-4-yl}-1H-indole-3-carboxamide], under setting [1], the IC50 lay within 10 to 100 nM. On to `COc1cnc(Nc2ccc(N3CCNCC3)cc2)nc1-n1cc(C(N)=O)c2ccccc21` [Compound 36, 1-[5-methoxy-2-(4-piperazin-1-yl-phenylamino)-pyrimidin-4-yl]-1H-indole-3-carboxamide], for which the 50% inhibitory concentration (IC50) under setting [1] is 1 to 10 nM.

For the molecule `NC(=O)c1cn(-c2nc(Nc3ccc(N4CCNCC4)c(F)c3)ncc2Cl)c2ccccc12` [Compound 44, 1-[5-chloro-2-(3-fluoro-4-piperazin-1-yl-phenylamino)-pyrimidin-4-yl]-1H-indole-3-carboxamide], the IC50 under setting [1] lay within 1 to 10 nM.

On to `CN(C)CCN(C)c1ccc(Nc2ncc(F)c(-n3cc(C(N)=O)c4ccccc43)n2)cc1` [Compound 84, 1-(2-{4-[(2-dimethylamino-ethyl)-methyl-amino]-phenylamino}-5-fluoro-pyrimidin-4-yl)-1H-indole-3-carboxamide], for which, under setting [1], the half-maximal inhibitory concentration (IC50) lay in the range of 1 to 10 nM. Take `Cc1cc(Nc2nccc(-n3cc(C(N)=O)c4ccccc43)n2)ccc1N(C)CCN(C)C` [Compound 79, 1-(2-{4-[(2-dimethylamino-ethyl)-methyl-amino]-3-methyl-phenylamino}-pyrimidin-4-yl)-1H-indole-3-carboxamide]: the IC50 under setting [1] is 1 to 10 nM. Turning to `Cc1cc(Nc2nccc(-n3cc(C(N)=O)c4ccccc43)n2)ccc1N1CCN(C)CC1` [Compound 50, 1-{2-[3-methyl-4-(4-methyl-piperazin-1-yl)-phenylamino]-pyrimidin-4-yl}-1H-indole-3-carboxamide], the IC50 under setting [1] fell in the range of 1 to 10 nM.

Regarding `Cc1cc(Nc2nccc(-n3cc(C(N)=O)c4ccccc43)n2)ccc1N1CCC(N(C)C)CC1` [Compound 68, 1-{2-[4-(4-dimethylamino-piperidin-1-yl)-3-methyl-phenylamino]-pyrimidin-4-yl}-1H-indole-3-carboxamide], under setting [1], the IC50 was 1 to 10 nM. Take `CN1CCN(c2cc(Nc3ncc(Cl)c(-n4cc(C(N)=O)c5ccccc54)n3)ccc2Cl)CC1` [Compound 120, 1-{5-chloro-2-[4-chloro-3-(4-methyl-piperazin-1-yl)-phenylamino]-pyrimidin-4-yl}-1H-indole-3-carboxamide]: the IC50 under setting [1] lay in the range of 10 to 100 nM. Turning to `NC(=O)c1cn(-c2ccnc(Nc3ccc(N4CCNCC4)cc3)n2)c2ccccc12` [Compound 27, 1-[2-(4-piperazin-1-yl-phenylamino)-pyrimidin-4-yl]-1H-indole-3-carboxamide], under setting [2], the IC50 was 1 to 10 nM.

Regarding `Cc1cc(Nc2ncc(F)c(-n3cc(C(N)=O)c4ccccc43)n2)ccc1N(C)CCN1CCCC1` [Compound 96, 1-(5-fluoro-2-{3-methyl-4-[methyl-(2-pyrrolidin-1-yl-ethyl)-amino]-phenylamino}-pyrimidin-4-yl)-1H-indole-3-carboxamide], under setting [1], the IC50 was in the range of 1 to 10 nM. For the molecule `COC1CCN(c2ccc(Nc3nccc(-n4cc(C(N)=O)c5ccccc54)n3)cc2)CC1` [Compound 67, 1-{2-[4-(4-methoxy-piperidin-1-yl)-phenylamino]-pyrimidin-4-yl}-1H-indole-3-carboxamide], the IC50 under setting [1] was 10 to 100 nM.
